This note sets out measurements from ChEMBL document CHEMBL1125352, “Synthesis of biologically active taxol analogues with modified phenylisoserine side chains” (1992).

Bounds are passed on as bounds.

Holding throughout (assay type): functional
Test [1] addresses T1, Tubulin (Bos taurus) (UniProt Q6B856+Q862L2+Q862F3). The test is described as follows: Concentration to stimulate the assembly of tubulin into microtubules.
Test [2] can be described thus: Ratio of ED50 of taxol to ED50 from cytotoxicity against B16 melanoma cell lines.
For test [3], the system named is B16. The test is described as follows: Cytotoxicity against B16 melanoma cell line. The note with it: Mus musculus, read-out: ED50 (the source's name).
A short description of test [4]: Ratio of ED50 of taxol to ED50 from tubulin binding assay.
For test [5], the system named is B16. The test is described as follows: Cytotoxicity against B16 melanoma cell line.62% inhibition at 42 uM. The following applies: Mus musculus, read-out: ED50 (the source's name).
Test [6] deals with T1, Tubulin (Bos taurus). The test is described as follows: Concentration to stimulate the assembly of tubulin into microtubules at a dose of […].
Test [7] concerns B16. The test is described as follows: Cytotoxicity against B16 melanoma cell line.40% inhibition at 1 uM. The note with it: Mus musculus, read-out: ED50 (the source's name).

On Tubulin (Bos taurus) [1], `CC(=O)O[C@H]1C(=O)[C@@]2(C)[C@H]([C@H](OC(=O)c3ccccc3)[C@]3(O)C[C@H](OC(=O)[C@H](O)[C@@H](NC(=O)c4ccc(Cl)cc4)c4ccccc4)C(C)=C1C3(C)C)[C@]1(OC(C)=O)CO[C@@H]1C[C@@H]2O` registered an ED50 of 1700 nM. The Ratio was found to be 1.5 in test [2] and 2.4 in test [4]. Further, the EC50 in the test with B16 [3] was determined as 43 nM.

`CC(=O)O[C@H]1C(=O)[C@@]2(C)[C@H]([C@H](OC(=O)c3ccccc3)[C@]3(O)C[C@H](OC(=O)[C@H](O)[C@@H](NC(=O)c4ccccc4)c4ccc(Cl)cc4)C(C)=C1C3(C)C)[C@]1(OC(C)=O)CO[C@@H]1C[C@@H]2O`: the ED50 at Tubulin (Bos taurus) [1] is 1300 nM. For the same compound, the Ratio worked out at 2.2 in test [2] and 1.9 in test [4]. For the same compound, the EC50 in the test on B16 [3] turned out to be 61 nM.

Consider `O=C(N[C@@H](c1ccccc1)[C@@H](O)C(=O)O)c1ccccc1` (relative stereo), for which the EC50 with B16 [5] is more than 10000 nM. This compound also displayed an ED50 at Tubulin (Bos taurus) [6] of more than 10000 nM. Besides, the results for the Ratio in test [2] and in test [4] were more than 360 and more than 14, respectively.

As to `CC(=O)O[C@H]1C(=O)[C@@]2(C)[C@H]([C@H](OC(=O)c3ccccc3)[C@]3(O)C[C@H](O)C(C)=C1C3(C)C)[C@]1(OC(C)=O)CO[C@@H]1C[C@@H]2O` [BACCATIN III], in the test with B16 [7], the EC50 was more than 1000 nM. The ED50 on Tubulin (Bos taurus) [6] is more than 10000 nM. In addition, the Ratio in test [2] is more than 36; in test [4], more than 14.

Take `CC(=O)O[C@H]1C(=O)[C@@]2(C)[C@H]([C@H](OC(=O)c3ccccc3)[C@]3(O)C[C@H](OC(=O)[C@H](O)[C@@H](NC(=O)c4ccccc4)c4ccccc4)C(C)=C1C3(C)C)[C@]1(OC(C)=O)CO[C@@H]1C[C@@H]2O` [PACLITAXEL]: the ED50 at Tubulin (Bos taurus) [1] is 700 nM. In addition, the Ratio in test [2] and in test [4] was 1 throughout. In addition, the EC50 in the test on B16 [3] came out at 28 nM.
